Data published in patent US9926318B2, “Tetracyclic autotaxin inhibitors” (PharmAkea, Inc., priority 2013, dated 2018).

Molecular target: human autotaxin (ATX) (Homo sapiens (Human), UniProt Q13822)
Experiment: Human autotaxin assay (choline release from LPC, Hep3B conditioned media)
Assay type: biochemical
Details: concentrated conditioned media from Hep3B cells, LPC substrate
Protocol: ATX activity is assayed in concentrated conditioned media from Hep3B human hepatocellular carcinoma cells by measuring the amount of choline released from the substrate, lysophosphatidylcholine (LPC) as it is cleaved to LPA. Conditioned media is collected from confluent Hep3B cells and concentrated 20-fold using Centriprep-30 filter devices (Millipore). […] 100 μl of a color mix containing 4.5 mM 4-aminoantipyrine, 2.7 mM N-ethyl-N-(2-hydroxy-3-sulfopropyl)-m-toluidine, 21 units/ml horseradish peroxidase and 3 units/ml choline oxidase in 50 mM Tris, pH 8, 4.5 mM MgCl2 is added and the incubation continued for 15 minutes at room temperature before reading the absorbance at 555 nm.

IC50 [nM]	SMILES
< 500	O=C(O)CCN1C(=O)[C@@H]2Cc3c(n(Cc4ccc(Cl)nc4)c4ccccc34)CN2C1=O [Compound 1-84, (S)-3-(6-((6-chloropyridin-3-yl)methyl)-1,3-dioxo-5,6,11,11a-tetrahydro-1H-imidazo[1′,5′:1,6]pyrido[3,4-b]indol-2(3H)-yl)propanoic acid]
< 500	O=C1C2Cc3c(n(Cc4ccc(F)cc4)c4ccccc34)CN2C(=O)N1CCO (stereo not drawn) [Compound 1-121, 6-(4-fluorobenzyl)-2-(2-hydroxyethyl)-5,6,11,11a-tetrahydro-1H-imidazo[1′,5′:1,6]pyrido[3,4-b]indole-1,3(2H)-dione]
< 500	COc1ccc(Cn2c3c(c4ccccc42)C[C@H]2C(=O)N(CCC(=O)O)C(=O)N2C3)cc1 [Compound 1-131, (S)-3-(6-(4-methoxybenzyl)-1,3-dioxo-11,11a-dihydro-1H-imidazo[1′,5′:1,6]pyrido[3,4-b]indol-2(3H,5H,6H)-yl)propanoic acid]
< 500	O=C(O)CCN1C(=O)[C@@H]2Cc3c(n(Cc4ccc(F)nc4)c4ccccc34)CN2C1=O [Compound 1-135, (S)-3-(6-((6-fluoropyridin-3-yl)methyl)-1,3-dioxo-11,11a-dihydro-1H-imidazo[1′,5′:1,6]pyrido[3,4-b]indol-2(3H,5H,6H)-yl)propanoic acid]
> 1000	O=C(O)CCN1C(=O)N2Cc3c(c4ccccc4n3Cc3ccc(F)cc3)C[C@H]2C1=S [Compound 1-141, (S)-3(6-(4-fluorobenzyl)-3-oxo-1-thioxo-5,6,11,11a-tetrahydro-1H-imidazo[1′,5′:1,6]pyrido[3,4-b]indol-2(3H)-yl)propanoic acid]

Continued, molecule first:

SMILES	IC50 [nM]
CC(C)(CC(=O)O)CN1C(=O)[C@@H]2Cc3c(n(Cc4ccc(F)cc4)c4ccccc34)CN2C1=O [Compound 1-42, (S)-4-(6-(4-fluorobenzyl)-1,3-dioxo-5,6,11,11a-tetrahydro-1H-imidazo[1′,5′:1,6]pyrido[3,4-b]indol-2(3H)-yl)-3,3-dimethylbutanoic acid]	< 500
O=C(O)CCN1C(=O)[C@@H]2Cc3c(n(Cc4cnc(C(F)(F)F)s4)c4ccccc34)CN2C1=O [Compound 1-102, (S)-3-(1,3-dioxo-6-((2-(trifluoromethyl)thiazol-5-yl)methyl)-11,11a-dihydro-1H-imidazo[1′,5′:1,6]pyrido[3,4-b]indol-2(3H,5H,6H)-yl)propanoic acid]	< 500
O=C1NC(=O)N2Cc3c(c4ccccc4n3Cc3ccc(F)cc3)C[C@@H]12 [Compound 1-130, (S)-6-(4-fluorobenzyl)-5,6,11,11a-tetrahydro-1H-imidazo[1′,5′:1,6]pyrido[3,4-b]indole-1,3(2H)-dione]	< 500
O=C(O)CCN1C(=O)[C@@H]2Cc3c(n(Cc4ccc(Cl)cc4Cl)c4ccccc34)CN2C1=O [Compound 1-132, (S)-3-(6-(2,4-dichlorobenzyl)-1,3-dioxo-11,11a-dihydro-1H-imidazo[1′,5′:1,6]pyrido[3,4-b]indol-2(3H,5H,6H)-yl)propanoic acid]	< 500
O=C(O)CCN1C(=O)[C@@H]2Cc3c(n(Cc4ccc(Cl)cc4F)c4ccccc34)CN2C1=O [Compound 1-133, (S)-3-(6-(4-chloro-2-fluorobenzyl)-1,3-dioxo-11,11a-dihydro-1H-imidazo[1′,5′:1,6]pyrido[3,4-b]indol-2(3H,5H,6H)-yl)propanoic acid]	< 500
O=C(O)CCN1C(=O)[C@@H]2Cc3c(n(Cc4ccc(F)cc4F)c4ccccc34)CN2C1=O [Compound 1-134, (S)-3-(6-(2,4-difluorobenzyl)-1,3-dioxo-11,11a-dihydro-1H-imidazo[1′,5′:1,6]pyrido[3,4-b]indol-2(3H,5H,6H)-yl)propanoic acid]	< 500
CS(=O)(=O)NC(=O)CCN1C(=O)[C@@H]2Cc3c(n(Cc4ccc(F)cc4)c4ccccc34)CN2C1=O [Compound 1-142, (S)-3-(6-(4-fluorobenzyl)-1,3-dioxo-11,11a-dihydro-1H-imidazo[1′,5′:1,6]pyrido[3,4-b]indol-2(3H,5H,6H)-yl)-N-(methylsulfonyl)propanamide]	< 500
